Reference: the NIST ThermoML archive (doi:10.1016/j.jct.2011.09.003)
Numbers after ± are expanded uncertainties.

Experiments:
[1] = for surface tension liquid-gas: digital tensiometer; for mass density: 101.33 kPa, Liquid, Vibrating tube method
[2] = xn = mol fraction of the nth substance listed; conditions: 298.15 K; for surface tension liquid-gas: digital tensiometer; for mass density: 101 kPa, Liquid, Vibrating tube method

CCCC[n+]1ccccc1.O=[N+]([O-])[O-] [1-butylpyridinium nitrate]
[1]
Conditions	mass density [kg/m3]	surface tension liquid-gas [mN/m]
293.15 K	1192.7 ± 0.4	52.32 ± 0.4
298.15 K	1188.5 ± 0.4	51.53 ± 0.4
303.15 K	1185.4 ± 0.4	51.21 ± 0.39
308.15 K	1181.2 ± 0.4	50.97 ± 0.39
313.15 K	1176.5 ± 0.4	50.53 ± 0.39
318.15 K	1173.5 ± 0.4	49.99 ± 0.39
323.15 K	1169.2 ± 0.4	49.53 ± 0.39
328.15 K	1165.6 ± 0.4	49.3 ± 0.4
333.15 K	1163.2 ± 0.4	48.96 ± 0.39
338.15 K	1159.4 ± 0.4	48.64 ± 0.39

O [water] + CCCC[n+]1ccccc1.O=[N+]([O-])[O-]
[2], x2 = 0
Conditions	mass density [kg/m3]	surface tension liquid-gas [mN/m]
–	1000 ± 0.1	72.03 ± 0.31

CCCC[n+]1ccccc1.O=[N+]([O-])[O-] [1-butylpyridinium nitrate] + O
[2]
Conditions	mass density [kg/m3]	surface tension liquid-gas [mN/m]
x1 = 0.0097	1016.3 ± 1.6	43.71 ± 2.2
x1 = 0.015	1024.4 ± 1.3	40.11 ± 0.36
x1 = 0.0359	1051.1 ± 1.2	37.59 ± 0.31
x1 = 0.0498	1067 ± 1.1	37.5 ± 0.3
x1 = 0.0593	1076.1 ± 0.8	37.6 ± 0.3
x1 = 0.0816	1092.6 ± 0.7	38.02 ± 0.31
x1 = 0.1136	1113.6 ± 0.4	40.03 ± 0.31
x1 = 0.2067	1144.7 ± 0.3	41.69 ± 0.31
x1 = 0.3247	1165.5 ± 0.2	44.01 ± 0.32
x1 = 0.447	1176.9 ± 0.2	46.05 ± 0.33
x1 = 0.633	1182.2 ± 0.3	48.01 ± 0.34
x1 = 0.7604	1185.3 ± 0.3	49.25 ± 0.36
x1 = 0.8226	1186.6 ± 0.3	49.56 ± 0.37
x1 = 0.9023	1188 ± 0.4	50.78 ± 0.38
x1 = 1	1188.5 ± 0.4	51.53 ± 0.4
